Columns and labels:
[1] = Dissolution test, USP paddle apparatus, UV quantification of active pharmaceutical ingredient release; assay type: physicochemical; settings: water, 37° C., paddle 50 rpm; pure drug powder
Experimental: Pre-mixed, dry powder materials (10% griseofulvin in α-mannitiol or 50% griseofulvin in α-mannitiol) were extruded using a production scale extruder (Leistritz Mikro GL 27-28D, Leistritz, Nuermber, Germany). […] The shear rate was varied on two levels during extrusion by varying the barrel length, the number of die holes and screw configuration. The extrudates were characterized by a dissolution test in accordance to the preliminary experiments (see FIG. 10). The dissolution tests were performed in a paddle apparatus (VK7030, Varian, Cary, N.C., USA) in accordance with the USP at 50 rpm. Six samples of each batch were tested in water at 37° C. as dissolution media. For the dissolution test, the extrudates were cut in small pieces of approximately 2 mg. The active pharmaceutical ingredient release was quantified with a UV-photometer (DU 640, Beckman, Fellerton, USA; Cary 300, Varian, Victoria, Australia) using different wavelengths (griseofulvin 296 nm, phenytoin 220 nm and spironolactone 243 nm) for 120 min using a cuvette with a 50 mm path length.

[2] = X-Ray diffraction, crystallinity of extrudates; assay type: physicochemical; settings: excipient extruded alone
Experimental: The crystal structure was characterized by X-Ray diffraction (LabX XRD6000, Shimadzu, Columbia, Md., USA). […] The powdered samples were placed in aluminum holders and measured in the reflection mode from 10 to 40° 2θ. The scanning rate was 5°/min using a sampling pitch of 0.02°. Each sample was measured in duplicate.

SMILES | crystallization after extrusion, in words [2] | further results
COC1=CC(=O)C[C@@H](C)[C@]12Oc1c(Cl)c(OC)cc(OC)c1C2=O [griseofulvin] |  | time to attain 50% release [1]: six
OC[C@@H](O)[C@@H](O)[C@H](O)[C@@H](O)CO [Sorbitol, sorbitol] | still predominantly amorphous after 24 h | 
OC[C@@H](O)[C@@H](O)[C@@H](O)CO [adonitol] | rapid crystallization | 
C[C@H](O)C(=O)O [L-(+)-lactic acid, L-(+)-Lactic acid] |  | time within which crystallization was completed [2]: ≤ 24 h

Reference: patent publication US20100222311A1, “SOLID FORMULATIONS OF CRYSTALLINE COMPOUNDS” (PURDUE RESEARCH FOUNDATION, priority 2007, published 2010)
